Measured values reported in ChEMBL document CHEMBL1773064, “Engineered Thermoplasma acidophilum factor F3 mimics human aminopeptidase N (APN) as a target for anticancer drug development” (Bioorg Med Chem, 2011).

Assays:
[1] = Inhibition of Thermoplasma acidophilum ATCC25905 recombinant Tricorn protease-interacting factor F3 E101Q, N261T mutant using Leu-p-nitroanilide as a substrate after 30 mins
[2] = Solubility of compound; format: physicochemical

NC(Cc1ccccc1)C(=O)NC(CCCCNC(=O)OCc1ccccc1)C(=O)NO (configuration not stated)
IC50 [1]: 30 µM | solubility [2]: soluble
